Results from US12378268B2, “Heterocyclic THR-β receptor agonist compound and preparation method and use therefor” (Hepagene Therapeutics (HK) Limited, priority 2019, dated 2025).
Like-named read-outs stand apart in the source and are kept apart here. Blank lines part the entries; values can stand above or below the compound they belong to.

What was measured:
THR-α = target: T1, THR-α (Homo sapiens, UniProt P10827); test: Test of the binding ability of the compound to TRα (TRα LBD/RXRα, biotin-SRC2-2 co-activating peptide, 665/615 nm fluorescence ratio); assay type: biochemical; conditions: for Emax: activity relative to positive control
T1 construct: TR-a LBD, GST purchased from Thermo Fisher; purchased Thermo Fisher PV4762
T1 sequence (P10827 163-410 isoform P10827-2 limits assumed, other chains not shown): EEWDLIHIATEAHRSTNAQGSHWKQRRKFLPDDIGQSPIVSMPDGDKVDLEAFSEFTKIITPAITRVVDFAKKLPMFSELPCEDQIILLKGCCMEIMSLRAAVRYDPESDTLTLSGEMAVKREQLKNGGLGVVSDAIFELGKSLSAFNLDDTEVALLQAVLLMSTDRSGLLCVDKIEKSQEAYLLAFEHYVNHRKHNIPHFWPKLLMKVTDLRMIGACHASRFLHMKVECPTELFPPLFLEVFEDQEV
T1 sequence (P19793 whole entry partner, other chains not shown, the tested form may be a part): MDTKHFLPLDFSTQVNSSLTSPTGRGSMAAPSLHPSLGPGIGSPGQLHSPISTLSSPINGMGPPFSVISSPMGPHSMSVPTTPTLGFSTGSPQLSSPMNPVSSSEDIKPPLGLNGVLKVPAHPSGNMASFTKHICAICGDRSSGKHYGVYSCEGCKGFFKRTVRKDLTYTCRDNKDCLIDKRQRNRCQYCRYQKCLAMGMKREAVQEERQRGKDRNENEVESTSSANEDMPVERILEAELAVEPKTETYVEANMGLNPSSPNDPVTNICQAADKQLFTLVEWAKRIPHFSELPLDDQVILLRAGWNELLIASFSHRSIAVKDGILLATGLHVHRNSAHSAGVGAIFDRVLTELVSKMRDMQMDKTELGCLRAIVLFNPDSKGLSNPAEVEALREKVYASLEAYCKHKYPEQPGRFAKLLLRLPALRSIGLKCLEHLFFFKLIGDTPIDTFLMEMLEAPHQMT
Method: (§1) 4.2 The activity percentage was calculated as follows: […]
(§2) RatioCompound: Average of the relative ratios of the compound wells of the embodiments
(§3) RatioPositive: Average of the relative ratios of all positive control wells.
(§4) RatioBlank: Average of the relative ratios of all negative control wells.
(§5) EC50 was calculated by fitting the relationship between activity (%) and compound logarithmic concentration with Graphpad 5.0 by a nonlinear regression method.
(§6) Y=Bottom+ (top-bottom)/(1+10^((LogEC50−X)*slope))
(§7) X: Compound logarithmic concentration Y: Percentage activity

THR-β = target: T2, THR-β (Homo sapiens, UniProt P10828); test: Test of the binding ability of the compound to TRβ (TRβ LBD/RXR, biotin-SRC2-2 co-activating peptide, 665/615 nm fluorescence ratio); assay type: biochemical; conditions: for Emax: activity relative to positive control
T2 construct: TRB LBD, GST purchased from Thermo Fisher; purchased Thermo Fisher PV4762
T2 sequence (P10828 217-461 limits assumed, other chains not shown): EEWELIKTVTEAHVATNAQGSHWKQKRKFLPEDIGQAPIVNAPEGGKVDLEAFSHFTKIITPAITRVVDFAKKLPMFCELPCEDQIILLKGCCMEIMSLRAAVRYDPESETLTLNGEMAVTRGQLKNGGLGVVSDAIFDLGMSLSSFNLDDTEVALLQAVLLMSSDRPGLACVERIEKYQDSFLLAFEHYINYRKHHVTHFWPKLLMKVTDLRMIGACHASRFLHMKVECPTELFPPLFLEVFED
T2 sequence (P28702 whole entry partner, other chains not shown, the tested form may be a part): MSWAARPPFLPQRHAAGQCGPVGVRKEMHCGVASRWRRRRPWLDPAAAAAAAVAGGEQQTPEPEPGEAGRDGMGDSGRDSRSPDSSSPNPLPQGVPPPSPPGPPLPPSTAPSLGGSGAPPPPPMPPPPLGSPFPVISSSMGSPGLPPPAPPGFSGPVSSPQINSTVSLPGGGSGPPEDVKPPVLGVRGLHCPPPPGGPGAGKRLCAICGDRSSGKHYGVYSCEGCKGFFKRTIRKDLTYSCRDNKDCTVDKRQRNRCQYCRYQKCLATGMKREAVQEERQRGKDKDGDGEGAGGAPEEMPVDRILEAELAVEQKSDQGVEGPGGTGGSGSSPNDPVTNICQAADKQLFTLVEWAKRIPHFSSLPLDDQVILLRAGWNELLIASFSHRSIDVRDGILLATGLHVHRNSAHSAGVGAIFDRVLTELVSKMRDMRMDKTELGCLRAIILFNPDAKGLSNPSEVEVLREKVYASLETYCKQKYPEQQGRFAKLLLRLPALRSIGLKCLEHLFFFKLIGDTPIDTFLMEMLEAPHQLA
Method: 1. Main experimental materials and instruments:
Biotin-SRC2-2 co-activating peptide purchased from Sangon Biotech (Shanghai) Co., Ltd.
TRB LBD, GST purchased from Thermo Fisher (product No. PV4762)
Europium-conjugated anti-glutathione antibody purchased from Cisbio (product No. 61GSTKLB)
Streptavidin-D2 purchased from Cisbio (product No. 610SADAB)
as §1, §2, §3, §4, §5, §6, §7

[1] = Drug metabolism experiment on prodrug in SD rats: concentration in liver compared with blood; assay type: in vivo; conditions: SD rats, oral 3 mg/kg VK-2809
Method: (§8) Test 3: Drug metabolism experiment on prodrug in SD rats
(§9) In the experiment, […] of 12 male SD rats having similar body weights were selected and orally administered compound 9, compound 10, and the control drug VK2809 (the prodrug of MB07444, structured as shown below) at a dose of 3 mg/kg at a single time, respectively, and blood and liver samples were collected at different time points.
(§10) Solutions of compound 9/compound 10 and VK2809 with a final concentration of 0.6 mg/mL were respectively prepared, and the ratio between the solvents used for the preparation was PEG400: pure water =50:50 (v/v).
(§11) No randomization was performed. The weights of the animals were measured before administration, and healthy animals with similar body weights were selected for inclusion in the experiment. The oral dose was 3 mg/kg.
(§12) At least 0.2 mL of blood was collected from the tail vein or jugular vein, and heparin sodium was used as the anticoagulant.
(§13) After being collected, a blood sample was placed in a marked ice-water bath centrifuge tube, plasma was quickly separated by centrifugation under centrifugation conditions: 3500 rpm, 10 minutes, and 4° C., and the plasma was stored under −40° C. for testing.
After the liver sample was collected, its surface was washed with normal saline, dried with medical gauze, placed in a labeled small ziplock bag, and stored under −40° C. for testing.
(§14) Q TRAP6500 mass spectrometer with ESI source was used to perform negative ion MRM scanning. An LC-MS/MS analysis method was used to detect the contents of compound 9, compound 10 and its active metabolite 1, VK2809 and its active metabolite MB07444 in the plasma and liver. The metabolic kinetics data analysis software WinNonlin 7.0 was used to calculate the concentration data of plasma, and the non-compartmental model (NCA) method was used to calculate the pharmacokinetic parameters.
The parameters of concentration in the livers of the SD rats and a comparison with the concentration in plasma are shown in Table 3 below: […]

[2] = Drug metabolism experiment on prodrug in SD rats: plasma pharmacokinetic parameters; assay type: in vivo; conditions: plasma
Method: as §8, §9, §10, §11, §12
15 min, 30 min, 1 h, 2 h, 4 h, 6 h, 8 h, 24 h after administration.
as §13, §14

[3] = male, Sprague-Dawley (SD), rat, po, 3 mg/kg, oral 3 mg/kg VK2809

Structure (SMILES): Cc1cc(OCP(=O)(O)O)cc(C)c1Cc1ccc(O)c2c1CCCCC2(C)C [Compound 4, ((4-((4-hydroxy-5,5-dimethyl-6,7,8,9-tetrahydro-5H-benzo[7]annun-1-yl)methyl)-3,5-dimethylphenoxy)methyl) phosphoric acid]
EC50 (THR-α): > 10000 nM | EC50 (THR-β): > 1000 nM

Structure (SMILES): Cc1cc(OCP(=O)(O)O)cc(C)c1Oc1ccc(O)c2c1CCC2(C)C [Compound 5, ((4-((7-hydroxy-1,1-dimethyl-2,3-dihydro-1H-indene-4-position)oxy)-3,5-dimethylphenoxy)methyl) phosphoric acid]
EC50 (THR-α): < 200 nM | Emax (THR-α): 102% | EC50 (THR-β): < 100 nM | Emax (THR-β): 110%

Structure (SMILES): Cc1cc(OC[P@@]2(=O)OCC[C@@H](c3cccc(Cl)c3)O2)cc(C)c1Cc1ccc(O)c(C(C)C)c1 [VK2809, reference compound]
Ct Blood ([1]; 24 h): BLQ | Ct Liver ([1]; 24 h): BLQ | concentration at 1 h ([1]; male, Sprague-Dawley, rat, liver, po, 3 mg/kg, 1 h, read-out: Ct Liver): 39 ng/g | concentration at 4 h ([1]; male, Sprague-Dawley, rat, liver, po, 3 mg/kg, 4 h, read-out: Ct Liver): 30 ng/g | concentration at 8 h ([1]; male, Sprague-Dawley, rat, liver, po, 3 mg/kg, 8 h, read-out: Ct Liver): 17 ng/g | Kp at 1 h ([1]; male, Sprague-Dawley, rat, liver/plasma, po, 3 mg/kg, 1 h, read-out: Liver-to-blood ratio): 8.6 | Kp at 4 h ([1]; male, Sprague-Dawley, rat, liver/plasma, po, 3 mg/kg, 4 h, read-out: Liver-to-blood ratio): 5.2 | Kp at 8 h ([1]; male, Sprague-Dawley, rat, liver/plasma, po, 3 mg/kg, 8 h, read-out: Liver-to-blood ratio): 4 | concentration at 1 h ([1]; male, Sprague-Dawley, rat, plasma, po, 3 mg/kg, 1 h, read-out: Ct Blood): 2.9 ng/g | concentration at 4 h ([1]; male, Sprague-Dawley, rat, plasma, po, 3 mg/kg, 4 h, read-out: Ct Blood): 4.8 ng/g | concentration at 8 h ([1]; male, Sprague-Dawley, rat, plasma, po, 3 mg/kg, 8 h, read-out: Ct Blood): 5.6 ng/g | AUC(0-inf) [2, 3]: 83.3 ng·h/mL | AUC(0-t) [2, 3]: 43.6 ng·h/mL | Tmax [2, 3]: 6 h | half-life [2, 3]: 4.81 h | Cmax ([2]; male, Sprague-Dawley (SD), rat, po, 3 mg/kg, oral 3 mg/kg VK2809, read-out: Cmax): 9.9 ng/mL | Kel ([2]; oral 3 mg/kg VK2809): 0.273 h⁻¹

Results, then the compound that gave them:

EC50 (THR-α): < 200 nM | Emax (THR-α): 98.3% | EC50 (THR-β): < 100 nM | Emax (THR-β): 104%
Structure (SMILES): Cc1cc(OCP(=O)(O)O)cc(C)c1Cc1ccc(O)c2c1CCC2C (centres unmarked) [Compound 2]

EC50 (THR-α): 50 nM | Emax (THR-α): 99.2% | EC50 (THR-β): 108 nM | Emax (THR-β): 79% | α/β selectivity (multiple) (THR-β; calculated after being standardized with T3): 0.7 multiple
Structure (SMILES): CC1(C)CCc2c(Cc3c(Cl)cc(OCP(=O)(O)O)cc3Cl)ccc(O)c21 [Compound 6, ((3,5-dichloro-4-((7-hydroxy-1,1-dimethyl-2,3-dihydro-1H-indene-4-position)methyl)phenoxy)methyl) phosphoric acid]
